# Measured values as given in patent US20260356830A1, “COMPOUNDS FOR MODULATING RET PROTEIN” (Bristol-Myers Squibb Company, priority 2022, published 2026).
# Biological target: T1, CCDC6-RET (Homo sapiens, UniProt P07949+Q16204+Q96SW2)
# T1 construct: CCDC6 (natural N-terminal fusion partner, UniProt Q16204); endogenous in cells; host or cells: TPC-1 (parental, papillary thyroid carcinoma)
# Assay: Cellular RET degradation, AlphaLISA, TPC-1 cell line
# Format: cell-based
# Conditions: for Dmax: TPC1, human, 24 h, read-out: Cell Density TPC-1/CCDC6-RET Ymax %; for DC50: read-out: Cell Density TPC-1/CCDC6-RET DC50, half-maximal degradation concentration, TPC-1 (CCDC6-RET), 24 hrs
# How it was run: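 TPC-1 papillary thyroid carcinoma cells (endogenous CCDC6-RET) in DMEM with 2% FBS, compound-treated 24 h at 37 °C. RET in lysates quantified by AlphaLISA luminescence, normalized to media-only and DMSO wells; DC50 and maximal degradation from 4-parameter logistic fit.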
# T1 sequence (Q16204+P07949 fused): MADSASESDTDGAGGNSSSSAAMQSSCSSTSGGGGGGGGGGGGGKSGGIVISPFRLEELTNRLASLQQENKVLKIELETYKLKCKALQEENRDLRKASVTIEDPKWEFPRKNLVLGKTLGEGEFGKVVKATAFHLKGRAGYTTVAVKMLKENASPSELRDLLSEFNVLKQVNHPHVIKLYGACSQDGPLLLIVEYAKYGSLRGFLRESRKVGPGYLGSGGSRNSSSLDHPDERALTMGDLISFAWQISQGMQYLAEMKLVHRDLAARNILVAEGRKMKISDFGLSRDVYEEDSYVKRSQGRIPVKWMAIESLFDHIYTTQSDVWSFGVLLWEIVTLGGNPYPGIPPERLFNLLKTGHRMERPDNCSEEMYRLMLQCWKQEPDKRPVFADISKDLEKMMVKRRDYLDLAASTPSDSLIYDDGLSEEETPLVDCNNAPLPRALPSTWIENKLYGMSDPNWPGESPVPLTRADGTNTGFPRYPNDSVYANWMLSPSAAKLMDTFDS
# T1 sequence (Q96SW2 whole entry, the tested form may be a part): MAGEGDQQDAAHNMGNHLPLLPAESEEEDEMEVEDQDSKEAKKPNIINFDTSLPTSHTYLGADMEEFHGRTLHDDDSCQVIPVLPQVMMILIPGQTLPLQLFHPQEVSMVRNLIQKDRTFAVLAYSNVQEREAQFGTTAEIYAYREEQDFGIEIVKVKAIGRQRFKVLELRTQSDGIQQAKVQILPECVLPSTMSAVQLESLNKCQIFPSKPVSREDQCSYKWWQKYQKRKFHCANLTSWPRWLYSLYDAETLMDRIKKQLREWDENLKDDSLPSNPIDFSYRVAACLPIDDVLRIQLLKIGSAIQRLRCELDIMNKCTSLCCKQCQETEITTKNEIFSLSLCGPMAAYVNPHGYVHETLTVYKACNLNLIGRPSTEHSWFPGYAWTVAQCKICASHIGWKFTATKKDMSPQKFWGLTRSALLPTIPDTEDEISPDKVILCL
# T1 sequence (Q16531 whole entry partner, the tested form may be a part): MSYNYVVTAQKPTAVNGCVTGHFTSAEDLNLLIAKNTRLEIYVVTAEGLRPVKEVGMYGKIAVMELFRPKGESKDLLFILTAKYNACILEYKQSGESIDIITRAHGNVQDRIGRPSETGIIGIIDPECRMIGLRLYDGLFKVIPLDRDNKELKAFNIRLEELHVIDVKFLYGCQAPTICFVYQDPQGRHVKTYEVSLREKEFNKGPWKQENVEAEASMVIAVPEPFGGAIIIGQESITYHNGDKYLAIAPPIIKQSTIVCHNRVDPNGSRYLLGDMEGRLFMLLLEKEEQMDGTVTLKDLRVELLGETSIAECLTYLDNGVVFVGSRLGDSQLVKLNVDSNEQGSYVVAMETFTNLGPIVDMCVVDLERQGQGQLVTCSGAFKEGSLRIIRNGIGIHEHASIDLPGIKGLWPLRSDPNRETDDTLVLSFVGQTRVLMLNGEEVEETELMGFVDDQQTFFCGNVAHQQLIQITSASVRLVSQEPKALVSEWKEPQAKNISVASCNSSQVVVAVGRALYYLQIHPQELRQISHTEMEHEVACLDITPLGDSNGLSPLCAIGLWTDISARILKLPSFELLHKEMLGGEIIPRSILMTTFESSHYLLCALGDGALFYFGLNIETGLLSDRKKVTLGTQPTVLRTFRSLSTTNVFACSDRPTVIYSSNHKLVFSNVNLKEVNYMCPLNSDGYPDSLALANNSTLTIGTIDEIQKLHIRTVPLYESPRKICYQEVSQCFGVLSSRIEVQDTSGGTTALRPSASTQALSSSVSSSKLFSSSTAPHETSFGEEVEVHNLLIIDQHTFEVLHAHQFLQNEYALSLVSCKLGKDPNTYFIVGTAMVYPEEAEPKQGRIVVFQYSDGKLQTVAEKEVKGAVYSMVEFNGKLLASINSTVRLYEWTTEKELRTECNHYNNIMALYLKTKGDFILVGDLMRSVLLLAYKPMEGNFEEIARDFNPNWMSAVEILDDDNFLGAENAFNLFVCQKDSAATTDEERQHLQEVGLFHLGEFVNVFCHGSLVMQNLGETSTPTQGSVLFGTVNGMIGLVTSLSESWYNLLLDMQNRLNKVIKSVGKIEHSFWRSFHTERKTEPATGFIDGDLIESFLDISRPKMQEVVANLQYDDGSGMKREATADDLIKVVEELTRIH
SMILES,Dmax [%],DC50 [nM]
"CCOc1cc(-c2ccc(N3CCC(CN4CCN(C(=O)CCCCCCCCCCNC(=O)COc5cccc6c5CN(C5CCC(=O)NC5=O)C6=O)CC4)(NC(=O)c4cc(F)ccc4F)CC3)nc2)c2c(C#N)cnn2c1 (centres unmarked) [Example 28, N-[1-(5-{3-cyano-6-ethoxypyrazolo[1,5-a]pyridin-4-yl}pyridin-2-yl)-4-({4-[11-(2-{[2-(2,6-dioxopiperidin-3-yl)-1-oxo-2,3-dihydro-1H-isoindol-4-yl]oxy}acetamido)undecanoyl]piperazin-1-yl}methyl)piperidin-4-yl]-2,5-difluorobenzamide]",60 to 90,10 to 100
"CCOc1cc(-c2ccc(N3CCC(CN4CCC5(CC4)CCN(C(=O)Cc4ccc6c(c4)CN(C4CCC(=O)NC4=O)C6=O)CC5)(NC(=O)c4cc(F)ccc4F)CC3)nc2)c2c(C#N)cnn2c1 (centres unmarked) [Example 98, N-[1-(5-{3-cyano-6-ethoxypyrazolo[1,5-a]pyridin-4-yl}pyridin-2-yl)-4-[(9-{2-[2-(2,6-dioxopiperidin-3-yl)-1-oxo-2,3-dihydro-1H-isoindol-5-yl]acetyl}-3,9-diazaspiro[5.5]undecan-3-yl)methyl]piperidin-4-yl]-2,5-difluorobenzamide]",> 90,2 to 10
"CCOc1cc(-c2ccc(N3CCC(CN4CCN(C(=O)C5CC6(C5)CC(N5CCC(c7ccc8c(c7)CN(C7CCC(=O)NC7=O)C8=O)CC5)C6)CC4)(NC(=O)c4cc(F)ccc4F)CC3)nc2)c2c(C#N)cnn2c1 (centres unmarked) [Example 92, N-[1-(5-{3-cyano-6-ethoxypyrazolo[1,5-a]pyridin-4-yl}pyridin-2-yl)-4-{[4-(6-{4-[2-(2,6-dioxopiperidin-3-yl)-1-oxo-2,3-dihydro-1H-isoindol-5-yl]piperidin-1-yl}spiro[3.3]heptane-2-carbonyl)piperazin-1-yl]methyl}piperidin-4-yl]-2,5-difluorobenzamide]",> 90,2 to 10
"CCOc1cc(-c2ccc(N3CCC(NC(=O)c4cc(F)ccc4F)(C(=O)NCCN4CCC(c5ccc6c(c5)C(=O)N(C5CCC(=O)NC5=O)C6)CC4)CC3)nc2)c2c(C#N)cnn2c1 (centres unmarked) [Example 161, 1-(5-{3-cyano-6-ethoxypyrazolo[1,5-a]pyridin-4-yl}pyridin-2-yl)-4-(2,5-difluorobenzamido)-N-(2-{4-[2-(2,6-dioxopiperidin-3-yl)-3-oxo-2,3-dihydro-1H-isoindol-5-yl]piperidin-1-yl}ethyl)piperidine-4-carboxamide]",60 to 90,< 2
"CCOc1cc(-c2ccc(N3CCC(CN4CCN(C5CC6(CC(C(=O)N7CCC(c8ccc9c(c8)CN(C8CCC(=O)NC8=O)C9=O)CC7)C6)C5)CC4)(NC(=O)c4cc(F)ccc4F)CC3)nc2)c2c(C#N)cnn2c1 (centres unmarked) [Example 95, N-[1-(5-{3-cyano-6-ethoxypyrazolo[1,5-a]pyridin-4-yl}pyridin-2-yl)-4-{[4-(6-{4-[2-(2,6-dioxopiperidin-3-yl)-1-oxo-2,3-dihydro-1H-isoindol-5-yl]piperidine-1-carbonyl}spiro[3.3]heptan-2-yl)piperazin-1-yl]methyl}piperidin-4-yl]-2,5-difluorobenzamide]",60 to 90,2 to 10
"CCOc1cc(-c2ccc(N3CCC(CN4CCC(N5CC(N6CCC(c7ccc8c(c7)C(=O)N(C7CCC(=O)NC7=O)C8)CC6)C5)CC4)(NC(=O)c4cc(F)ccc4F)CC3)nc2)c2c(C#N)cnn2c1 (centres unmarked) [Example 71, N-(1-(5-(3-cyano-6-ethoxypyrazolo[1,5-a]pyridin-4-yl)pyridin-2-yl)-4-((4-(3-(4-(2-(2,6-dioxopiperidin-3-yl)-3-oxoisoindolin-5-yl)piperidin-1-yl)azetidin-1-yl)piperidin-1-yl)methyl)piperidin-4-yl)-2,5-difluorobenzamide]",> 90,< 2
"CCOc1cc(-c2ccc(N3CCC(CN4CCN(CCC(=O)N5CCC(c6ccc7c(c6)C(=O)N(C6CCC(=O)NC6=O)C7=O)CC5)CC4)(NC(=O)c4cc(F)ccc4F)CC3)nc2)c2c(C#N)cnn2c1 (centres unmarked) [Example 117, N-[1-(5-{3-cyano-6-ethoxypyrazolo[1,5-a]pyridin-4-yl}pyridin-2-yl)-4-{[4-(3-{4-[2-(2,6-dioxopiperidin-3-yl)-1,3-dioxo-2,3-dihydro-1H-isoindol-5-yl]piperidin-1-yl}-3-oxopropyl)piperazin-1-yl]methyl}piperidin-4-yl]-2,5-difluorobenzamide]",> 90,2 to 10

# Further lines, results first:
Dmax [%],DC50 [nM],SMILES
60 to 90,2 to 10,"CCOc1cc(-c2ccc(N3CCC(CN(C(=O)CCN4CCN(c5ccc6c(c5)C(=O)N(C5CCC(=O)NC5=O)C6)CC4)C(C)C)(NC(=O)c4cc(F)ccc4F)CC3)nc2)c2c(C#N)cnn2c1 (centres unmarked) [Example 167, N-[1-(5-{3-cyano-6-ethoxypyrazolo[1,5-a]pyridin-4-yl}pyridin-2-yl)-4-[(3-{4-[2-(2,6-dioxopiperidin-3-yl)-3-oxo-2,3-dihydro-1H-isoindol-5-yl]piperazin-1-yl}-N-(propan-2-yl)propanamido)methyl]piperidin-4-yl]-2,5-difluorobenzamide]"
> 90,2 to 10,"CCOc1cc(-c2ccc(N3CCC(CN4CCN(C(=O)CCCCCCN5CCN(c6ccc7c(c6)C(=O)N(C6CCC(=O)NC6=O)C7)CC5)CC4)(NC(=O)c4cc(F)ccc4F)CC3)nc2)c2c(C#N)cnn2c1 (centres unmarked) [Example 16, N-[1-(5-{3-cyano-6-ethoxypyrazolo[1,5-a]pyridin-4-yl}pyridin-2-yl)-4-{[4-(7-{4-[2-(2,6-dioxopiperidin-3-yl)-3-oxo-2,3-dihydro-1H-isoindol-5-yl]piperazin-1-yl}heptanoyl)piperazin-1-yl]methyl}piperidin-4-yl]-2,5-difluorobenzamide]"
> 90,2 to 10,"CCOc1cc(-c2ccc(N3CCC(COCc4cn(CCN5CCN(c6ccc7c(c6)CN(C6CCC(=O)NC6=O)C7=O)CC5)nn4)(NC(=O)c4cc(F)ccc4F)CC3)nc2)c2c(C#N)cnn2c1 (centres unmarked) [Example 49, N-[1-[5-(3-cyano-6-ethoxy-pyrazolo[1,5-a]pyridin-4-yl)-2-pyridyl]-4-[[1-[2-[4-[2-(2,6-dioxo-3-piperidyl)-1-oxo-isoindolin-5-yl]piperazin-1-yl]ethyl]triazol-4-yl]methoxymethyl]-4-piperidyl]-2,5-difluoro-benzamide]"
60 to 90,2 to 10,"CCOc1cc(-c2ccc(N3CCC(COCC(=O)NCCCCN4CCN(c5ccc6c(c5)CN(C5CCC(=O)NC5=O)C6=O)CC4)(NC(=O)c4cc(F)ccc4F)CC3)nc2)c2c(C#N)cnn2c1 (centres unmarked) [Example 31, N-[1-[5-(3-cyano-6-ethoxy-pyrazolo[1,5-a]pyridin-4-yl)-2-pyridyl]-4-[[2-[4-[4-[2-(2,6-dioxo-3-piperidyl)-1-oxo-isoindolin-5-yl]piperazin-1-yl]butylamino]-2-oxo-ethoxy]methyl]-4-piperidyl]-2,5-difluoro-benzamide]"
60 to 90,100 to 2000,"CCOc1cc(-c2ccc(N3CCC(Cc4ccccc4)(NC(=O)CC4CCN(C(=O)CCN5CCC(c6ccc7c(c6)C(=O)N(C6CCC(=O)NC6=O)C7)CC5)CC4)CC3)nc2)c2c(C#N)cnn2c1 (centres unmarked) [Example 54, N-[4-benzyl-1-[5-(3-cyano-6-ethoxy-pyrazolo[1,5-a]pyridin-4-yl)-2-pyridyl]-4-piperidyl]-2-[1-[3-[4-[2-(2,6-dioxo-3-piperidyl)-3-oxo-isoindolin-5-yl]-1-piperidyl]propanoyl]-4-piperidyl]acetamide]"
60 to 90,2 to 10,"CCOc1cc(-c2ccc(N3CCC(NC(=O)c4cc(F)ccc4F)(C(=O)NCCCCCCCCNc4ccc5c(N6CCC(=O)NC6=O)nn(C)c5c4)CC3)nc2)c2c(C#N)cnn2c1 [Example 152, 1-(5-{3-cyano-6-ethoxypyrazolo[1,5-a]pyridin-4-yl}pyridin-2-yl)-4-(2,5-difluorobenzamido)-N-(8-{[3-(2,4-dioxo-1,3-diazinan-1-yl)-1-methyl-1H-indazol-6-yl]amino}octyl)piperidine-4-carboxamide]"
> 90,< 2,"CCOc1cc(-c2ccc(N3CCC(CN(C(=O)CCCCCCN4CCN(c5ccc6c(c5)CN(C5CCC(=O)NC5=O)C6=O)CC4)C(C)C)(NC(=O)c4cc(F)ccc4F)CC3)nc2)c2c(C#N)cnn2c1 (centres unmarked) [Example 165, N-[1-(5-{3-cyano-6-ethoxypyrazolo[1,5-a]pyridin-4-yl}pyridin-2-yl)-4-[(7-{4-[2-(2,6-dioxopiperidin-3-yl)-1-oxo-2,3-dihydro-1H-isoindol-5-yl]piperazin-1-yl}-N-(propan-2-yl)heptanamido)methyl]piperidin-4-yl]-2,5-difluorobenzamide]"
60 to 90,< 2,"CCOc1cc(-c2ccc(N3CCC(Cc4ccccc4)(NC(=O)C4CCN(C(=O)CCN5CCC(c6ccc7c(c6)CN(C6CCC(=O)NC6=O)C7=O)CC5)CC4)CC3)nc2)c2c(C#N)cnn2c1 (centres unmarked) [Example 66, N-[4-benzyl-1-(5-{3-cyano-6-ethoxypyrazolo[1,5-a]pyridin-4-yl}pyridin-2-yl)piperidin-4-yl]-1-(3-{4-[2-(2,6-dioxopiperidin-3-yl)-1-oxo-2,3-dihydro-1H-isoindol-5-yl]piperidin-1-yl}propanoyl)piperidine-4-carboxamide]"
60 to 90,2 to 10,"CCOc1cc(-c2ccc(N3CCC(CN4CC5(C4)CN(C(=O)COc4ccc6c(c4)CN(C4CCC(=O)NC4=O)C6=O)C5)(NC(=O)c4cc(F)ccc4F)CC3)nc2)c2c(C#N)cnn2c1 (centres unmarked) [Example 97, N-[1-(5-{3-cyano-6-ethoxypyrazolo[1,5-a]pyridin-4-yl}pyridin-2-yl)-4-{[6-(2-{[2-(2,6-dioxopiperidin-3-yl)-1-oxo-2,3-dihydro-1H-isoindol-5-yl]oxy}acetyl)-2,6-diazaspiro[3.3]heptan-2-yl]methyl}piperidin-4-yl]-2,5-difluorobenzamide]"
